Values of other authors as cited in patent publication US20210401968A1 (priority 2018, published 2021).
Read-outs that look alike come from different tables or passages of the source.

Key:
[1] = target: T1, progesterone receptor-based transactivator (Homo sapiens, UniProt P06401); conditions: rats
T1 construct: host or cells: rats (host animal of the cited study)
T1 sequence (P06401 640-891, added parts left off): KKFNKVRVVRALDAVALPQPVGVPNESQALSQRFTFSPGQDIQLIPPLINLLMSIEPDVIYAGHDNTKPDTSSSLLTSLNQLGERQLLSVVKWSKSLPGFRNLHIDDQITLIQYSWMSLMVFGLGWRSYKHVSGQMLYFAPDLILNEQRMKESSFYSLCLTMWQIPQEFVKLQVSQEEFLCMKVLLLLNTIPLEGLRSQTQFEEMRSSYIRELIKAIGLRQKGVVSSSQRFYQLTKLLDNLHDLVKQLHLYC

**Q.** Which “amount giving an effective concentration” value ([1]; i.p.) does the source give for `CC#C[C@]1(O)CC[C@H]2[C@@H]3CCC4=CC(=O)CCC4=C3[C@@H](c3ccc(N(C)C)cc3)C[C@@]21C` [mifepristone] here?
**A.** The value was 5 µg/kg.

**Q.** What about the “amount giving an effective concentration” value ([1]; orally) of the same compound?
**A.** The value was “about 10 μg/kg”.

**Q.** And the “duration of sustained target gene expression after a single heat treatment” value (luciferase target gene)?
**A.** The value was “at least 6 days”.

**Q.** What about the “target gene expression after heat treatment” value (luciferase target gene) of the same compound?
**A.** Its value is “resulted in activation of target gene expression”.
